Results on 49 compounds are retold here after patent US20140315933A1, “CHEMICAL COMPOUNDS” (Pfizer Limited, priority 2013, published 2014).

Where a name gives a salt, the structure may show the parent alone.

This experiment deals with T1, URAT-1 transporter (Homo sapiens, UniProt Q96S37).
T1 construct: expressed in transfected cells
T1 sequence (Q96S37 with tags, fused parts or gaps): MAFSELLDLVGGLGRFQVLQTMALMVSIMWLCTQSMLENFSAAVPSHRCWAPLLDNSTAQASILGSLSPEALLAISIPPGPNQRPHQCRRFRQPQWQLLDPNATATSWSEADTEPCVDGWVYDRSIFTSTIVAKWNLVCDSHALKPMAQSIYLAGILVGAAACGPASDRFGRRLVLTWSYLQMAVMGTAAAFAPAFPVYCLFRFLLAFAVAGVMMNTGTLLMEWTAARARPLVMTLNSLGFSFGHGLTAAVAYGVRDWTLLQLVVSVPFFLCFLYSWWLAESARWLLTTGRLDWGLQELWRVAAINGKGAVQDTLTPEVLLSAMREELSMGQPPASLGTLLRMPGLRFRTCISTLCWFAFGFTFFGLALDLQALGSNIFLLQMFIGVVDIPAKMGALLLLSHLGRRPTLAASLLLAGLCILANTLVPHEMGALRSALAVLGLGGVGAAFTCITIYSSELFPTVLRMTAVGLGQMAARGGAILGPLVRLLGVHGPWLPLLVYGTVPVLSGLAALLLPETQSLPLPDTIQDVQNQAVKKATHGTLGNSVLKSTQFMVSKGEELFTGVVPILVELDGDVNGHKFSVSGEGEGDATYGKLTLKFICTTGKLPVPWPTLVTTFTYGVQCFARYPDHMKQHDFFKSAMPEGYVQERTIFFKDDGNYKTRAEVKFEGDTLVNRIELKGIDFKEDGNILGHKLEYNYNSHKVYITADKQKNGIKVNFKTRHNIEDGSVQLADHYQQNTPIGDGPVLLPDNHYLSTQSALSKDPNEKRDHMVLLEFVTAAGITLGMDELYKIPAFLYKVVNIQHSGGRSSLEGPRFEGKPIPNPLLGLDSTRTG
As to the kind of experiment: URAT-1 inhibitor activity: [14C]-uric acid uptake into CHO-URAT1(L)GFP#8 (CHO#8) cells, scintillation proximity. Type of experiment: cell-based. The essentials: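 Scintillation proximity read-out of 30 nM (final) [14C]-uric acid uptake over three hours at room temperature in chloride-free HEPES buffer pH 7.4. Compounds, 0–10 μM final with 0.25% DMSO, were added 15 minutes before substrate; cells were a clonal CHO line with human URAT1(L)-eGFP, preincubated 1 hour in chloride buffer.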
For orientation: In a scintillation proximity assay essentially only radioactivity close to the scintillant gives light.
As a reminder, the IC50 is the midpoint of a concentration-inhibition curve. Compound `N#Cc1cc(S(=O)(=O)Nc2ncc(Cl)s2)ccc1Oc1ccccc1F` [Example 84, N-(5-chloro-1,3-thiazol-2-yl)-3-cyano-4-(2-fluorophenoxy)benzenesulfonamide] returned a 50% inhibitory concentration (IC50) of 681 nM.
The same measure for `N#Cc1cc(S(=O)(=O)Nc2ncns2)ccc1Oc1cccc(F)c1F` [Example 49, 3-cyano-4-(2,3-difluorophenoxy)-N-(1,2,4-thiadiazol-5-yl)benzenesulfonamide]: 1460 nM; for `CC(C)Oc1ccc(Cl)cc1Oc1ccc(S(=O)(=O)Nc2ncns2)cc1C#N` [Example 11, 4-[5-chloro-2-(propan-2-yloxy)phenoxy]-3-cyano-N-(1,2,4-thiadiazol-5-yl)benzenesulfonamide diethylamine salt]: 1380 nM; for `N#Cc1cc(S(=O)(=O)Nc2ncc(F)s2)ccc1Oc1cc(F)ccc1F` [Example 102, 3-cyano-4-(2,5-difluorophenoxy)-N-(5-fluoro-1,3-thiazol-2-yl)benzenesulfonamide]: 1430 nM.
`CC(C)c1cccc(Oc2ccc(S(=O)(=O)Nc3nccs3)cc2F)c1` [Example 66, 3-fluoro-4-[3-(propan-2-yl)phenoxy]-N-(1,3-thiazol-2-yl)benzenesulfonamide] showed an IC50 of 5810 nM.
Compound `N#Cc1cc(S(=O)(=O)Nc2ncns2)ccc1Oc1cccc(C(F)(F)F)c1F` [Example 53, 3-cyano-4-[2-fluoro-3-(trifluoromethyl)phenoxy]-N-(1,2,4-thiadiazol-5-yl)benzenesulfonamide] gave an IC50 of 5240 nM.
The same measure for `N#Cc1cc(S(=O)(=O)Nc2nncs2)ccc1Oc1cnc(OC(F)F)c(Cl)c1` [Example 334]: 2030 nM; for `N#Cc1cc(S(=O)(=O)Nc2ncc(F)s2)ccc1Oc1ccc(Cl)cc1OC(F)(F)F` [Example 91, 4-[4-chloro-2-(trifluoromethoxy)phenoxy]-3-cyano-N-(5-fluoro-1,3-thiazol-2-yl)benzenesulfonamide]: 2630 nM.
Under `Cc1ccc(Oc2ccc(S(=O)(=O)Nc3ncc(F)s3)cc2C#N)c(F)c1F` [Example 120, 3-cyano-4-(2,3-difluoro-4-methylphenoxy)-N-(5-fluoro-1,3-thiazol-2-yl)benzenesulfonamide] stands 1320 nM; under `N#Cc1cc(Oc2cc(F)c(S(=O)(=O)Nc3cscn3)cc2Cl)ccc1F` [compound 235], greater than 10000 nM; under `N#Cc1ccc(Oc2ccc(S(=O)(=O)Nc3cscn3)c(F)c2)cc1Cl` [compound 225], 300 nM.
The same measure for `COc1ccncc1Oc1ccc(S(=O)(=O)Nc2ncns2)cc1C#N` [Example 18, 3-cyano-4-[(4-methoxypyridin-3-yl)oxy]-N-(1,2,4-thiadiazol-5-yl)benzenesulfonamide]: greater than 10000 nM; for `O=S(=O)(Nc1cscn1)c1cc(Br)c(Oc2ccc(F)c(F)c2)cc1F` [compound 234]: greater than 10000 nM.
Compound `COc1c(Oc2cc(F)c(S(=O)(=O)Nc3nncs3)cc2Cl)ccc(F)c1C` [compound 319] had an IC50 greater than 1710 nM.
For the compound `COc1cc(Cl)ccc1Oc1ccc(S(=O)(=O)Nc2nncs2)c(OC)c1` [Example 80, 4-(4-chloro-2-methoxyphenoxy)-2-methoxy-N-(1,3,4-thiadiazol-2-yl)benzenesulfonamide], the IC50 is greater than 5780 nM.
`N#Cc1cc(S(=O)(=O)Nc2cscn2)ccc1Oc1ccc(F)c(F)c1` [compound 228, 3-cyano-4-(3,4-difluorophenoxy)-N-(1,3-thiazol-4-yl)benzenesulfonamide] gave an IC50 of 123 nM. In other words, the sub-micromolar range.
Compound `Cc1ccc(Cl)cc1Oc1ccc(S(=O)(=O)Nc2ncns2)cc1C#N` [Example 40, 4-(5-chloro-2-methylphenoxy)-3-cyano-N-(1,2,4-thiadiazol-5-yl)benzenesulfonamide] had a concentration for half-maximal inhibition (IC50) greater than 2920 nM.
Under `CCc1ccc(Oc2ccc(S(=O)(=O)Nc3ncc(F)s3)cc2C#N)cc1` [Example 95, 3-cyano-4-(4-ethylphenoxy)-N-(5-fluoro-1,3-thiazol-2-yl)benzenesulfonamide] stands greater than 7360 nM; under `N#Cc1cc(S(=O)(=O)Nc2ncc(F)s2)ccc1Oc1cc(C(F)(F)F)ccc1Cl` [Example 136, 4-[2-chloro-5-(trifluoromethyl)phenoxy]-3-cyano-N-(5-fluoro-1,3-thiazol-2-yl)benzenesulfonamide], 464 nM; under `O=S(=O)(Nc1nncs1)c1cc(Cl)c(Oc2ccc(Cl)cc2OC(F)F)cc1F` [Example 152, 5-chloro-4-[4-chloro-2-(difluoromethoxy)phenoxy]-2-fluoro-N-(1,3,4-thiadiazol-2-yl)benzenesulfonamide], greater than 10000 nM.
`N#Cc1cc(F)ccc1Oc1ccc(S(=O)(=O)Nc2ncns2)cc1C#N` [Example 47, 3-cyano-4-(2-cyano-4-fluorophenoxy)-N-(1,2,4-thiadiazol-5-yl)benzenesulfonamide] yielded an IC50 of 5390 nM.
Under `CCc1cc(F)ccc1Oc1ccc(S(=O)(=O)Nc2cscn2)cc1I` [Example 77, 4-(2-ethyl-4-fluorophenoxy)-3-iodo-N-(1,3-thiazol-4-yl)benzenesulfonamide] stands 160 nM.
The same measure for `COc1ccc(C#N)cc1Oc1cc(F)c(S(=O)(=O)Nc2nncs2)cc1Cl` [compound 309]: greater than 10000 nM; for `Cc1cc(F)ccc1Oc1ccc(S(=O)(=O)Nc2ncc(F)s2)cc1C#N` [Example 93, 3-cyano-4-(4-fluoro-2-methylphenoxy)-N-(5-fluoro-1,3-thiazol-2-yl)benzenesulfonamide]: greater than 1610 nM.
In turn, `O=S(=O)(Nc1nccs1)c1ccc(Oc2ccccc2Br)c(F)c1` [Example 75, 4-(2-bromophenoxy)-3-fluoro-N-(1,3-thiazol-2-yl)benzenesulfonamide] returned an IC50 greater than 10000 nM.
Under `CCc1cc(F)ccc1Oc1ccc(S(=O)(=O)Nc2nccs2)cc1C#N` [compound 179] stands 121 nM; under `COc1cccc(Oc2cc(F)c(S(=O)(=O)Nc3nncs3)cc2Cl)c1` [compound 306], 2410 nM; under `CC(C)c1cccc(Oc2ccc(S(=O)(=O)Nc3ncc(F)s3)cc2F)c1` [Example 69, 3-fluoro-N-(5-fluoro-1,3-thiazol-2-yl)-4-[3-(propan-2-yl)phenoxy]benzenesulfonamide], greater than 6340 nM.
Compound `CCc1ncccc1Oc1cc(F)c(S(=O)(=O)Nc2nncs2)cc1Cl` [compound 307] had an IC50 greater than 7190 nM.
Under `CCOc1ncccc1Oc1ccc(S(=O)(=O)Nc2ncns2)cc1C#N` [Example 17, 3-cyano-4-[(2-ethoxypyridin-3-yl)oxy]-N-(1,2,4-thiadiazol-5-yl)benzenesulfonamide diethylamine salt] stands 161 nM.
As for `N#Cc1cc(S(=O)(=O)Nc2ncns2)ccc1Oc1cc(C(F)(F)F)ccc1Cl` [Example 45, 4-[2-chloro-5-(trifluoromethyl)phenoxy]-3-cyano-N-(1,2,4-thiadiazol-5-yl)benzenesulfonamide], half-maximal inhibition (IC50) was put at 1020 nM.
Turning to `Cc1ccc(Cl)cc1Oc1ccc(S(=O)(=O)Nc2ncc(F)s2)cc1C#N` [Example 129, 4-(5-chloro-2-methylphenoxy)-3-cyano-N-(5-fluoro-1,3-thiazol-2-yl)benzenesulfonamide], the IC50 worked out at 480 nM.
On to `COc1ccc(Cl)c(Oc2cc(F)c(S(=O)(=O)Nc3nncs3)cc2Cl)c1` [compound 326], for which the IC50 stood at 369 nM.
Consider `COc1ccc(Oc2cc(F)c(S(=O)(=O)Nc3nncs3)cc2Cl)c(Cl)c1` [compound 317], for which the IC50 was found to be 1630 nM.
Under `N#Cc1cc(S(=O)(=O)Nc2ncc(F)s2)ccc1Oc1ccc(CCO)cc1I` [Example 145, 3-cyano-N-(5-fluoro-1,3-thiazol-2-yl)-4-[4-(2-hydroxyethyl)-2-iodophenoxy]benzene-sulfonamide] stands 803 nM; under `N#Cc1cc(S(=O)(=O)Nc2nccs2)ccc1Oc1ccc(I)cc1F` [compound 178], 645 nM.
Under `Cc1cc(S(=O)(=O)Nc2ncns2)ccc1Oc1ccc(F)c(F)c1` [compound 211] stands 1110 nM.
For the compound `O=S(=O)(Nc1nncs1)c1cc(Cl)c(Oc2cccc(Cl)c2)cc1F` [compound 330], it took 2390 nM to reach half-maximal inhibition (IC50).
Under `N#Cc1cc(S(=O)(=O)Nc2nccs2)ccc1Oc1ccc(Br)cc1CO` [Example 8, 4-[4-bromo-2-(hydroxymethyl)phenoxy]-3-cyano-N-(1,3-thiazol-2-yl)benzenesulfonamide] stands 2140 nM; under `N#Cc1ccc(Oc2ccc(S(=O)(=O)Nc3nccs3)cc2C#N)cc1Cl` [Example 1, 4-(3-chloro-4-cyanophenoxy)-3-cyano-N-(1,3-thiazol-2-yl)benzenesulfonamide], 58 nM.
The same measure for `COc1ccc(Cl)c(Oc2ccc(S(=O)(=O)Nc3ncns3)cc2C#N)c1` [compound 261]: 1820 nM; for `N#Cc1cc(S(=O)(=O)Nc2ncns2)ccc1Oc1c(F)cccc1Cl` [compound 251]: 1320 nM; for `N#Cc1cc(Oc2cc(F)c(S(=O)(=O)Nc3cscn3)cc2Br)ccc1F` [compound 222]: greater than 3130 nM.
The same measure for `N#Cc1cc(S(=O)(=O)Nc2ncc(F)s2)ccc1Oc1ccc(F)c(F)c1` [Example 248, 3-cyano-4-(3,4-difluorophenoxy)-N-(5-fluoro-1,3-thiazol-2-yl)benzenesulfonamide]: greater than 1200 nM.
As to `Cc1cncc(Oc2cc(F)c(S(=O)(=O)Nc3nncs3)cc2Cl)c1` [compound 311], the IC50 came to 1100 nM.
The compound `N#Cc1cc(Oc2ccc(S(=O)(=O)Nc3cscn3)c(Cl)c2)ccc1F` [compound 236] registered an IC50 greater than 10000 nM.
`Cc1cc(Cl)ccc1Oc1ccc(S(=O)(=O)Nc2ncc(F)s2)cc1C#N` [Example 117, 4-(4-chloro-2-methylphenoxy)-3-cyano-N-(5-fluoro-1,3-thiazol-2-yl)benzenesulfonamide] gave an IC50 of 1440 nM.
`COc1cc(Cl)ccc1Oc1ccc(S(=O)(=O)Nc2cscn2)c(Cl)c1` [Example 81, 2-chloro-4-(4-chloro-2-methoxyphenoxy)-N-(1,3-thiazol-4-yl)benzenesulfonamide diethylamine salt]: the IC50 is 3600 nM. This IC50 is about 2.5-fold higher than that of the compound before.
Under `Cc1ccnc(C)c1Oc1cc(F)c(S(=O)(=O)Nc2nncs2)cc1Cl` [compound 308] stands greater than 10000 nM.
